Laboratory results taken from patent US9958436B2, “Determination of cell chirality” (THE TRUSTEES OF COLUMBIA UNIVERSITY IN THE CITY OF NEW YORK, priority 2011, dated 2018).

Columns and labels:
C2C12 cells = test: Cell chirality (alignment) on micropatterned rings, drug treatment, C2C12; type: cell-based, mouse; settings: for CCW: counter-clockwise alignment / CW: clockwise alignment / N/S: not significantly biased to CW or CCW: C2C12 on ring patterns, count of rings; for effect on chirality of C2C12 cells: low concentrations of the actin treadmilling inhibitors; for effect on left-right asymmetry / effect on cell chirality: C2C12; for effect on left-right asymmetry: drugs that affect the actomyosin motor, 0.2-10 mM Y-27632, 1-20 mM ML-7, 0.5-10 mM Blebbistatin; for effect on cell chirality: inhibitors of tubulin dynamics at concentrations below those resulting in cell apoptosis
Procedure: (§1) Cells were maintained in tissue flasks with culture media specified in TABLE 2. After reaching 70% confluency, cells were trypsinized and seeded onto protein-coated patterned surfaces. Once the cells attached, extra cells were washed off with fresh medium. At this time drugs were added into the culture medium if necessary. Phase contrast images were taken after overnight incubation at 37° C. and 5% CO2 when cells reached confluency on the ring patterns.
(§2) To examine the role of actin in left-right (LR) asymmetry, cells were tested with 20-500 nM Latrunculin A, 0.05-1.0 μg/ml Cytochalasin D, and 1-100 nM Jasplakinolide. Latrunculin A inhibits actin polymerization by forming a 1:1 molar complex with G-actin, thereby inhibiting its ability to polymerize into F-actin (M. Coue, S. L. Brenner, I. Spector, E. D. Korn, FEBS Lett 213, 316 (Mar. 23, 1987)). Cytochalasin D inhibits actin polymerization by binding to the growing ends of F-actin chains and thus preventing the attachment and addition of G-actin monomers (J. A. Cooper, J Cell Biol 105, 1473 (October, 1987)). Jasplakinolide is known to bind to and stabilize actin filaments in vitro (M. R. Bubb, I. Spector, B. B. Beyer, K. M. Fosen, J Biol Chem 275, 5163 (Feb. 18, 2000)).
(§3) To examine the role of microtubules in LR asymmetry, 0.2-2 μM Nocodazole, and 0.3-30 nM Taxol were used. Nocodazole suppresses microtubule dynamics by destabilizing and disassembling microtubules (J. A. Cooper, J Cell Biol 105, 1473 (October, 1987)). Taxol inhibits the microtubule depolymerization and stabilizes microtubules (W. B. Derry, L. Wilson, M. A. Jordan, Biochemistry 34, 2203 (Feb. 21, 1995)).
To examine the role of the actomyosin motor, cells were tested with […], […], and 0.5-10 […]. Y-27632 works as a selective inhibitor to prevent the phosphorylation of the myosin regulatory light chain (T. Ishizaki et al., Mol Pharmacol 57, 976 (May, 2000)). ML-7 acts as a selective inhibitor of the myosin light chain kinase (M. Isemura, T. Mita, K. Satoh, K. Narumi, M. Motomiya, Cell Biol Int Rep 15, 965 (October, 1991)). Blebbistatin forms a low actin affinity complex through binding to myosin heads, causing the inhibition of nonmuscle myosin II ATPase activity (M. Kovacs, J. Toth, C. Hetenyi, A. Malnasi-Csizmadia, J. R. Sellers, J Biol Chem 279, 35557 (Aug. 20, 2004)).
(§4) High-resolution phase contrast images of live patterned cells were taken at a resolution of ˜0.645 μm/pixel, and analyzed using a custom-written code in MatLab (MathWorks, Natick, Mass.), based on the automated detection of intensity gradient and circular statistics (W. J. Karlon et al., Ann Biomed Eng 27, 712 (November-December, 1999)). In this algorithm, the intensity gradient was determined pixel by pixel with a Gaussian differential filter. In each sub-region of the image, the dominant local direction was determined using an accumulator scheme, in which the orientation of each pixel follows a von Mises distribution, a circular analogue of the linear normal distribution. Subsequently, the orientation in each sub-region was converted into an angle bias based on its deviation from the circumferential direction (see e.g., FIG. 2C). Mean angle and standard deviation of LR asymmetry were calculated for all sub-regions, using circular statistics (N. I. Fish, Statistical Analysis of Circular Data. (Cambridge University Press, Cambridge, UK, 1993)). […] The sub-region size was therefore set to 20 by 20 pixels (i.e., 13 by 13 μm).
(§5) Cell chirality on ring patterns (i.e., clockwise or counterclockwise alignment) was determined from calculated biased angles in local regions with one sample test for the mean angle, analogous to the one sample t-test in linear statistics (N. I. Fish, Statistical Analysis of Circular Data. (Cambridge University Press, Cambridge, UK, 1993)).

hUVEC cells = test: Cell chirality (alignment) on micropatterned rings, drug treatment, hUVEC; type: cell-based, human; settings: hUVEC on ring patterns, count of rings
Procedure: as §1, §2, §3, §4, §5

C=C1[C@@H](C)[C@H]2[C@H](Cc3ccccc3)NC(=O)[C@]23[C@H](OC(C)=O)/C=C/[C@@](C)(O)C(=O)[C@@H](C)C/C=C/[C@H]3[C@@H]1O [Cytochalasin D]
CCW: counter-clockwise alignment (C2C12 cells; drug 0.05 μg/mL): 8
CW: clockwise alignment (C2C12 cells; drug 0.05 μg/mL): 9
N/S: not significantly biased to CW or CCW (C2C12 cells; drug 0.05 μg/mL): 6
CCW: counter-clockwise alignment (C2C12 cells; drug 0.1 μg/mL): 3
CW: clockwise alignment (C2C12 cells; drug 0.1 μg/mL): 7
N/S: not significantly biased to CW or CCW (C2C12 cells; drug 0.1 μg/mL): 10
CCW: counter-clockwise alignment (C2C12 cells; drug 0.2 μg/mL): 5
CW: clockwise alignment (C2C12 cells; drug 0.2 μg/mL): 21
N/S: not significantly biased to CW or CCW (C2C12 cells; drug 0.2 μg/mL): 23
CCW: counter-clockwise alignment (C2C12 cells; drug 0.5 μg/mL): 0
CW: clockwise alignment (C2C12 cells; drug 0.5 μg/mL): 10
N/S: not significantly biased to CW or CCW (C2C12 cells; drug 0.5 μg/mL): 14
CCW: counter-clockwise alignment (C2C12 cells; drug 1 μg/mL): 1
CW: clockwise alignment (C2C12 cells; drug 1 μg/mL): 8
N/S: not significantly biased to CW or CCW (C2C12 cells; drug 1 μg/mL): 20
effect on chirality of C2C12 cells (C2C12 cells): reversed the chirality of C2C12 cells from CCW into CW
CCW: counter-clockwise alignment (hUVEC cells; drug 0.1 μg/mL): 0
CW: clockwise alignment (hUVEC cells; drug 0.1 μg/mL): 8
N/S: not significantly biased to CW or CCW (hUVEC cells; drug 0.1 μg/mL): 12
CCW: counter-clockwise alignment (hUVEC cells; drug 0.2 μg/mL): 0
CW: clockwise alignment (hUVEC cells; drug 0.2 μg/mL): 10
N/S: not significantly biased to CW or CCW (hUVEC cells; drug 0.2 μg/mL): 22
CCW: counter-clockwise alignment (hUVEC cells; drug 0.5 μg/mL): 1
CW: clockwise alignment (hUVEC cells; drug 0.5 μg/mL): 0
N/S: not significantly biased to CW or CCW (hUVEC cells; drug 0.5 μg/mL): 6

O=S(=O)(c1cccc2c(I)cccc12)N1CCCNCC1 [ML-7]
effect on left-right asymmetry (C2C12 cells): did not affect left-right asymmetry

Cc1ccc2c(c1)C(=O)C1(O)CCN(c3ccccc3)C1=N2 (stereo not shown) [Blebbistatin]
effect on left-right asymmetry (C2C12 cells): did not affect left-right asymmetry

C/C1=C\[C@H](C)C[C@H](C)OC(=O)C[C@H](c2ccc(O)cc2)NC(=O)[C@@H](Cc2c(Br)[nH]c3ccccc23)N(C)C(=O)[C@H](C)NC(=O)[C@@H](C)C1 [Jasplakinolide]
CCW: counter-clockwise alignment (C2C12 cells; drug 1 nM): 34
CW: clockwise alignment (C2C12 cells; drug 1 nM): 2
N/S: not significantly biased to CW or CCW (C2C12 cells; drug 1 nM): 10
CCW: counter-clockwise alignment (C2C12 cells; drug 3 nM): 18
CW: clockwise alignment (C2C12 cells; drug 3 nM): 3
N/S: not significantly biased to CW or CCW (C2C12 cells; drug 3 nM): 4
CCW: counter-clockwise alignment (C2C12 cells; drug 10 nM): 14
CW: clockwise alignment (C2C12 cells; drug 10 nM): 7
N/S: not significantly biased to CW or CCW (C2C12 cells; drug 10 nM): 5
CCW: counter-clockwise alignment (C2C12 cells; drug 30 nM): 0
CW: clockwise alignment (C2C12 cells; drug 30 nM): 18
N/S: not significantly biased to CW or CCW (C2C12 cells; drug 30 nM): 4
CCW: counter-clockwise alignment (C2C12 cells; drug 100 nM): 0
CW: clockwise alignment (C2C12 cells; drug 100 nM): 7
N/S: not significantly biased to CW or CCW (C2C12 cells; drug 100 nM): 9
effect on chirality of C2C12 cells (C2C12 cells): reversed the chirality of C2C12 cells from CCW into CW
CCW: counter-clockwise alignment (hUVEC cells; drug 1 nM): 1
CW: clockwise alignment (hUVEC cells; drug 1 nM): 32
N/S: not significantly biased to CW or CCW (hUVEC cells; drug 1 nM): 1
CCW: counter-clockwise alignment (hUVEC cells; drug 3 nM): 2
CW: clockwise alignment (hUVEC cells; drug 3 nM): 22
N/S: not significantly biased to CW or CCW (hUVEC cells; drug 3 nM): 5
CCW: counter-clockwise alignment (hUVEC cells; drug 10 nM): 5
CW: clockwise alignment (hUVEC cells; drug 10 nM): 22
N/S: not significantly biased to CW or CCW (hUVEC cells; drug 10 nM): 10
CCW: counter-clockwise alignment (hUVEC cells; drug 30 nM): 0
CW: clockwise alignment (hUVEC cells; drug 30 nM): 5
N/S: not significantly biased to CW or CCW (hUVEC cells; drug 30 nM): 4
CCW: counter-clockwise alignment (hUVEC cells; drug 100 nM): 0
CW: clockwise alignment (hUVEC cells; drug 100 nM): 1
N/S: not significantly biased to CW or CCW (hUVEC cells; drug 100 nM): 5

CC(=O)O[C@H]1C(=O)[C@@]2(C)[C@H]([C@H](OC(=O)c3ccccc3)[C@]3(O)C[C@H](OC(=O)[C@H](O)[C@@H](NC(=O)c4ccccc4)c4ccccc4)C(C)=C1C3(C)C)[C@]1(OC(C)=O)CO[C@@H]1C[C@@H]2O [Taxol]
effect on cell chirality (C2C12 cells): did not change cell chirality
CCW: counter-clockwise alignment (C2C12 cells; drug 0.3 nM): 24
CW: clockwise alignment (C2C12 cells; drug 0.3 nM): 1
N/S: not significantly biased to CW or CCW (C2C12 cells; drug 0.3 nM): 3
CCW: counter-clockwise alignment (C2C12 cells; drug 1 nM): 20
CW: clockwise alignment (C2C12 cells; drug 1 nM): 1
N/S: not significantly biased to CW or CCW (C2C12 cells; drug 1 nM): 6
CCW: counter-clockwise alignment (C2C12 cells; drug 3 nM): 31
CW: clockwise alignment (C2C12 cells; drug 3 nM): 2
N/S: not significantly biased to CW or CCW (C2C12 cells; drug 3 nM): 9
CCW: counter-clockwise alignment (C2C12 cells; drug 10 nM): 17
CW: clockwise alignment (C2C12 cells; drug 10 nM): 2
N/S: not significantly biased to CW or CCW (C2C12 cells; drug 10 nM): 8
CCW: counter-clockwise alignment (C2C12 cells; drug 30 nM): 16
CW: clockwise alignment (C2C12 cells; drug 30 nM): 2
N/S: not significantly biased to CW or CCW (C2C12 cells; drug 30 nM): 13
CCW: counter-clockwise alignment (hUVEC cells; drug 0.3 nM): 0
CW: clockwise alignment (hUVEC cells; drug 0.3 nM): 8
N/S: not significantly biased to CW or CCW (hUVEC cells; drug 0.3 nM): 0
CCW: counter-clockwise alignment (hUVEC cells; drug 1 nM): 1
CW: clockwise alignment (hUVEC cells; drug 1 nM): 34
N/S: not significantly biased to CW or CCW (hUVEC cells; drug 1 nM): 4
CCW: counter-clockwise alignment (hUVEC cells; drug 3 nM): 2
CW: clockwise alignment (hUVEC cells; drug 3 nM): 7
N/S: not significantly biased to CW or CCW (hUVEC cells; drug 3 nM): 9
CCW: counter-clockwise alignment (hUVEC cells; drug 10 nM): 5
CW: clockwise alignment (hUVEC cells; drug 10 nM): 10
N/S: not significantly biased to CW or CCW (hUVEC cells; drug 10 nM): 11
CCW: counter-clockwise alignment (hUVEC cells; drug 30 nM): 2
CW: clockwise alignment (hUVEC cells; drug 30 nM): 4
N/S: not significantly biased to CW or CCW (hUVEC cells; drug 30 nM): 7

C[C@@H](N)[C@H]1CC[C@H](C(=O)Nc2ccncc2)CC1 [Y-27632]
effect on left-right asymmetry (C2C12 cells): did not affect left-right asymmetry

COC(=O)Nc1nc2ccc(C(=O)c3cccs3)cc2[nH]1 [Nocodazole]
effect on cell chirality (C2C12 cells): did not change cell chirality
CCW: counter-clockwise alignment (C2C12 cells; drug 200 nM): 57
CW: clockwise alignment (C2C12 cells; drug 200 nM): 0
N/S: not significantly biased to CW or CCW (C2C12 cells; drug 200 nM): 18
CCW: counter-clockwise alignment (C2C12 cells; drug 500 nM): 35
CW: clockwise alignment (C2C12 cells; drug 500 nM): 0
N/S: not significantly biased to CW or CCW (C2C12 cells; drug 500 nM): 58
CCW: counter-clockwise alignment (C2C12 cells; drug 1 μM): 18
CW: clockwise alignment (C2C12 cells; drug 1 μM): 0
N/S: not significantly biased to CW or CCW (C2C12 cells; drug 1 μM): 21
CCW: counter-clockwise alignment (C2C12 cells; drug 2 μM): 1
CW: clockwise alignment (C2C12 cells; drug 2 μM): 0
N/S: not significantly biased to CW or CCW (C2C12 cells; drug 2 μM): 6
CCW: counter-clockwise alignment (hUVEC cells; drug 200 nM): 3
CW: clockwise alignment (hUVEC cells; drug 200 nM): 25
N/S: not significantly biased to CW or CCW (hUVEC cells; drug 200 nM): 76
CCW: counter-clockwise alignment (hUVEC cells; drug 500 nM): 2
CW: clockwise alignment (hUVEC cells; drug 500 nM): 14
N/S: not significantly biased to CW or CCW (hUVEC cells; drug 500 nM): 27
CCW: counter-clockwise alignment (hUVEC cells; drug 1 μm): 0
CW: clockwise alignment (hUVEC cells; drug 1 μm): 3
N/S: not significantly biased to CW or CCW (hUVEC cells; drug 1 μm): 4
CCW: counter-clockwise alignment (hUVEC cells; drug 2 μm): 0
CW: clockwise alignment (hUVEC cells; drug 2 μm): 1
N/S: not significantly biased to CW or CCW (hUVEC cells; drug 2 μm): 7
